Results on eleven molecules are retold here after patent US20250195513A1, “DEGRADATION OF IRAK4 BY CONJUGATION OF IRAK4 INHIBITORS WITH E3 LIGASE LIGAND AND METHODS OF USE” (BeiGene, Ltd., priority 2022, published 2025).

What all share (assay type): cell-based
Assay [1] has as its target T1, IRAK4 (Homo sapiens, UniProt Q9NWZ3).
T1 construct: endogenous in cells; host or cells: Karpas299
T1 sequence (Q9NWZ3 1-460): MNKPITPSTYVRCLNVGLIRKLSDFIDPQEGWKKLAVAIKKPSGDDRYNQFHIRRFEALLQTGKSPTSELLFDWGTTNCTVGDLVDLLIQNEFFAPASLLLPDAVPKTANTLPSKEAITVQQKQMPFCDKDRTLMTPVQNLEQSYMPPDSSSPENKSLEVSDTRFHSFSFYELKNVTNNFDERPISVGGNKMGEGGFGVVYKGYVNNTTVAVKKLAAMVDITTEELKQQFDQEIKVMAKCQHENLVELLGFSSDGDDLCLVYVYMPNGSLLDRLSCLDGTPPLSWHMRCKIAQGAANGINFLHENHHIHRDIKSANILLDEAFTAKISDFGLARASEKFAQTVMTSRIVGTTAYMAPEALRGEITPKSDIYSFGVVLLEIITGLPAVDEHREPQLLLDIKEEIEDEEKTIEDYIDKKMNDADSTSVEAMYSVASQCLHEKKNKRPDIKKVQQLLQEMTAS
In words: IRAK4 Degradation Assay (Karpas299, HTRF/TR-FRET). Particulars: Karpas-299 cells; for Dmax: maximum percentage of degradation. Summed up:
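Karpas299 cells at 0.2 million per well were exposed to serially diluted compounds for 24 h or 5 h, then lysed. IRAK4 remaining in lysates was quantified by HTRF (665/620 nm) after overnight antibody incubation at room temperature. Percent degradation was fitted to a four-parameter curve to give IC50 (DC50).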

The test system of assay [2] is TNF-α production in THP-1 cells. In words: TNF-α Production Assay in THP-1 Cells (LPS stimulated). The settings on record: Homo sapiens, THP-1, 24 h. How it is done:
THP-1 cells maintained in RPMI 1640 medium (Thermo Scientific) supplemented with 10% FBS (Thermo Scientific), 100 units/mL penicillin and 0.1 mg/mL streptomycin (Thermo Scientific) were seeded into 96-well plates at the density of 0.2 million cells per well and then treated with compounds for 24 h. Lipopolysaccharide was subsequently added at the final concentration of 1 μg/mL for 24 h. Culture supernatant was collected for measurement of TNF-α concentration by a TR-FRET-based method (Degorce, François, et al. Current chemical genomics. 2009, 3: 22) as described by the manufacturer manual (Cisbio). FRET signals were measured using a PHERAstar FSX reader (BMG Labtech).

Assay [3] addresses T1, IRAK4. In words: IRAK4 Degradation Assay with Human Serum (Karpas299, HTRF/TR-FRET). Particulars: Karpas-299 in human serum, 24 hrs treatment; for DC50: read-out: IRAK4 degradtion with human serum assay DC50; for Dmax: read-out: IRAK4 degradtion with human serum assay Dmax (%). An outline of the steps:
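Karpas299 cells in human AB serum (0.2 million/well) treated with serial compound dilutions for 24 h. After lysis, IRAK4 quantified by HTRF (overnight antibody incubation at room temperature, 665/620 nm read). Degradation percentage fitted to four-parameter curve to give DC50.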
For orientation: TR-FRET usually uses a lanthanide donor and a delayed reading to cut background.

The mark [4] stands for this setting: 5 h treatment, read-out: IRAK4 in Karpas-299 (5 h) Dmax (%).
[5] abbreviates: 5 h treatment, read-out: IRAK4 in Karpas-299 (5 h) DC50.
Where [6] appears, read: 24 h treatment, read-out: IRAK4 in Karpas-299 (24 h) Dmax (%).
Where [7] appears, read: 24 h treatment, read-out: IRAK4 in Karpas-299 (24 h) DC50.

pIC50: −log10 of the molar value.

Consider `COc1cc2nn([C@H]3CC[C@H](N4CCN(C(=O)C5CN(c6cc(F)c(N7CCC(=O)NC7=O)c(F)c6)C5)CC4)CC3)cc2cc1NC(=O)c1cccc(C(F)(F)F)n1` [Example 176, N-(2-((1r,4r)-4-(4-(1-(4-(2,4-dioxotetrahydropyrimidin-1(2H)-yl)-3,5-difluorophenyl)azetidine-3-carbonyl)piperazin-1-yl)cyclohexyl)-6-methoxy-2H-indazol-5-yl)-6-(trifluoromethyl)picolinamide], for which the Dmax (commonly the greatest extent of degradation seen) in assay [1] (setting [4]) is 96%; in assay [1] (setting [6]) it was 97%. Besides, the figures for the DC50 in assay [1] (setting [5]) and in assay [1] (setting [7]) were 12 nM and 1.6 nM, respectively. In assay [2], the pIC50 (usually the IC50 on a negative log10 scale, so that one unit is a factor of ten) was 6.92. Also, the Emax in assay [2] (maximum inhibition, read-out: TNF-α (THP-1) 24 h IMax) turned out to be 78%.
On to `CC(C)(O)c1cc2nn([C@H]3CC[C@H](N4CCN([C@H]5C[C@@H](c6ccc(N[C@@H]7CCC(=O)NC7=O)cc6)C5)CC4)CC3)cc2cc1NC(=O)c1ccc2cc(C#N)cnn12` [Example 271, 3-cyano-N-(2-((1R,4r)-4-(4-((1S,3S)-3-(4-(((R)-2,6-dioxopiperidin-3-yl)amino)phenyl)cyclobutyl)piperazin-1-yl)cyclohexyl)-6-(2-hydroxypropan-2-yl)-2H-indazol-5-yl)pyrrolo[1,2-b]pyridazine-7-carboxamide], for which the Dmax in assay [1] (setting [6]) was 94%; in assay [3], 101%. The DC50 (in general, the concentration giving 50% degradation) turned out to be 4 nM in assay [1] (setting [7]) and 11 nM in assay [3].
As to `CC(C)(O)c1cc2nn([C@H]3CC[C@H](N4CCN(C5CCN(c6ccc(C7CCC(=O)NC7=O)nc6)CC5)CC4)CC3)cc2cc1NC(=O)c1ccc2cc(C#N)cnn12` (some centres unmarked) [Example 254, 3-cyano-N-(2-((1r,4r)-4-(4-(1-(6-(2,6-dioxopiperidin-3-yl)pyridin-3-yl)piperidin-4-yl)piperazin-1-yl)cyclohexyl)-6-(2-hydroxypropan-2-yl)-2H-indazol-5-yl)pyrrolo[1,2-b]pyridazine-7-carboxamide], the Dmax in assay [1] (setting [4]) is 97%; in assay [1] (setting [6]), 96%; in assay [3] it was 98%. Also, the 50% degradation concentration (DC50) in assay [1] (setting [5]) amounted to 6.7 nM; in assay [1] (setting [7]), 4.4 nM; in assay [3], 25 nM.
On to `C[C@H]1CN(C2CCN(c3cc(F)c([C@H]4CCC(=O)NC4=O)c(F)c3)CC2)CCN1[C@H]1CC[C@H](n2cc3cc(NC(=O)c4ccc5cc(C#N)cnn45)c(C(C)(C)O)cc3n2)CC1` [Example 307, 3-cyano-N-(2-((1S,4r)-4-((S)-4-(1-(4-((R)-2,6-dioxopiperidin-3-yl)-3,5-difluorophenyl)piperidin-4-yl)-2-methylpiperazin-1-yl)cyclohexyl)-6-(2-hydroxypropan-2-yl)-2H-indazol-5-yl)pyrrolo[1,2-b]pyridazine-7-carboxamide], for which the Dmax in assay [1] (setting [6]) is 100%; in assay [3] it was 99%. Further, the results for the DC50 in assay [1] (setting [7]) and in assay [3] were 0.5 nM and 3.6 nM, respectively.
For `C[C@H]1CN(CCc2cc(F)c([C@H]3CCC(=O)NC3=O)c(F)c2)CCN1[C@H]1CC[C@H](n2cc3cc(NC(=O)c4ccc5cc(C#N)cnn45)c(C(C)(C)O)cc3n2)CC1` [Example 305, 3-cyano-N-(2-((1S,4r)-4-((S)-4-(4-((R)-2,6-dioxopiperidin-3-yl)-3,5-difluorophenethyl)-2-methylpiperazin-1-yl)cyclohexyl)-6-(2-hydroxypropan-2-yl)-2H-indazol-5-yl)pyrrolo[1,2-b]pyridazine-7-carboxamide], the Dmax was found to be 96% in assay [1] (setting [6]) and 99% in assay [3]. In addition, the DC50 in assay [1] (setting [7]) was determined as 1.7 nM; in assay [3], 5.1 nM.
For `CC(C)(O)c1cc2nn(C34CC(N5CCN(C(=O)[C@@H]6CCN(c7cc(F)c([C@H]8CCC(=O)NC8=O)c(F)c7)C6)CC5)(C3)C4)cc2cc1NC(=O)c1cccc(C(F)(F)F)n1` [Example 152, N-(2-(3-(4-((R)-1-(4-((R)-2,6-dioxopiperidin-3-yl)-3,5-difluorophenyl)pyrrolidine-3-carbonyl)piperazin-1-yl)bicyclo[1.1.1]pentan-1-yl)-6-(2-hydroxypropan-2-yl)-2H-indazol-5-yl)-6-(trifluoromethyl)picolinamide], the Dmax came to 96% in assay [1] (setting [4]), 96% in assay [1] (setting [6]) and 98% in assay [3]. For the same molecule, the DC50 came to 3.8 nM in assay [1] (setting [5]), 2.1 nM in assay [1] (setting [7]) and 55 nM in assay [3].
In the case of `COc1cc(N2CC(C(=O)N3CCN([C@H]4CC[C@H](n5cc6cc(NC(=O)c7ccc8cc(C#N)cnn78)c(C(C)(C)O)cc6n5)CC4)CC3)C2)c(F)cc1N1CCC(=O)NC1=O` [Example 258, 3-cyano-N-(2-((1r,4r)-4-(4-(1-(4-(2,4-dioxotetrahydropyrimidin-1(2H)-yl)-2-fluoro-5-methoxyphenyl)azetidine-3-carbonyl)piperazin-1-yl)cyclohexyl)-6-(2-hydroxypropan-2-yl)-2H-indazol-5-yl)pyrrolo[1,2-b]pyridazine-7-carboxamide], the Dmax in assay [1] (setting [6]) worked out at 96%; in assay [3] it was 97%. For the same molecule, the DC50 came to 2.6 nM in assay [1] (setting [7]) and 21 nM in assay [3].
Taken in the same sequence, the figures for `CC(C)(O)c1cc2nn(C34CC(N5CCN(CC6CCN(c7ccc8c(c7)CN(C7CCC(=O)NC7=O)C8=O)CC6)CC5)(C3)C4)cc2cc1NC(=O)c1ccc2cc(C#N)cnn12` (centres unmarked) [Example 401, 3-cyano-N-(2-(3-(4-((1-(2-(2,6-dioxopiperidin-3-yl)-1-oxoisoindolin-5-yl)piperidin-4-yl)methyl)piperazin-1-yl)bicyclo[1.1.1]pentan-1-yl)-6-(2-hydroxypropan-2-yl)-2H-indazol-5-yl)pyrrolo[1,2-b]pyridazine-7-carboxamide] were 94%, 94%, 1.2 nM and 7.4 nM.
Taken in the same sequence, the figures for `COC[C@@H]1CN(C2CCN(c3ccc(C4CCC(=O)NC4=O)nc3C)CC2)CCN1[C@H]1CC[C@H](n2cc3cc(NC(=O)c4ccc5cc(C#N)cnn45)c(C(C)(C)O)cc3n2)CC1` (stereo partly drawn) [Example 423, 3-cyano-N-(2-((1S,4r)-4-((2S)-4-(1-(6-(2,6-dioxopiperidin-3-yl)-2-methylpyridin-3-yl)piperidin-4-yl)-2-(methoxymethyl)piperazin-1-yl)cyclohexyl)-6-(2-hydroxypropan-2-yl)-2H-indazol-5-yl)pyrrolo[1,2-b]pyridazine-7-carboxamide] were 98%, 96%, 1.1 nM and 3 nM.
Taken in the same sequence, the figures for `COC[C@H]1CN([C@H]2CC[C@H](n3cc4cc(NC(=O)c5ccc6cc(C#N)cnn56)c(C(C)(C)O)cc4n3)CC2)CCN1C(=O)[C@@H]1CCN(c2cc(F)c(N3CCC(=O)NC3=O)c(F)c2)C1` [Example 316, 3-cyano-N-(2-((1R,4r)-4-((R)-4-((R)-1-(4-(2,4-dioxotetrahydropyrimidin-1(2H)-yl)-3,5-difluorophenyl)pyrrolidine-3-carbonyl)-3-(methoxymethyl)piperazin-1-yl)cyclohexyl)-6-(2-hydroxypropan-2-yl)-2H-indazol-5-yl)pyrrolo[1,2-b]pyridazine-7-carboxamide] were 97%, 95%, 1.6 nM and 35 nM.
As for `COC[C@H]1CN(C2CCN(c3ccc(C4CCC(=O)NC4=O)nc3C)CC2)CCN1[C@H]1CC[C@H](n2cc3cc(NC(=O)c4ccc5cc(C#N)cnn45)c(C(C)(C)O)cc3n2)CC1` (stereo partly drawn) [Example 415, 3-cyano-N-(2-((1R,4r)-4-((2R)-4-(1-(6-(2,6-dioxopiperidin-3-yl)-2-methylpyridin-3-yl)piperidin-4-yl)-2-(methoxymethyl)piperazin-1-yl)cyclohexyl)-6-(2-hydroxypropan-2-yl)-2H-indazol-5-yl)pyrrolo[1,2-b]pyridazine-7-carboxamide], the figures for the Dmax in assay [1] (setting [6]) and in assay [3] were 97% and 98%, respectively. For the same molecule, the DC50 is 1.4 nM in assay [1] (setting [7]) and 8.6 nM in assay [3].
